Measured values reported in patent publication EP0326331B1, “Substituted quinolines and cinnolines” (Dow AgroSciences LLC, priority 1988, dated 1989).
Read-outs that look alike come from different tables or passages of the source.

What was measured:
Format in all cases: in vivo
[1] = system: melon aphids (Aphis gossypii Glover); test: Mite/insect screen, MA; settings: percent mortality, SAW
Method in brief: (§1)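 Formulation: acetone/alcohol 50:50 + sulfonate/nonionic emulsifiers, water-diluted to indicated concs. Spray both leaf surfaces to runoff, 10 psi; dry 1 h. Armyworm: 2 excised uninfested leaves in Petri dish. Score % mortality after standard exposure.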

corn rootworm = test: Mite/insect screen, CRW; settings: percent mortality
Method in brief: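 Percent mortality is evaluated once the standard exposure period ends. Test material is applied as a water dilution of an acetone/alcohol (50:50) stock carrying two sulfonate/nonionic emulsifiers (23 and 13 g per liter).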

[2] = system: Botrytis cinerea (gray mold); test: Test 1 greenhouse foliar spray screen, gray mold on grape berries; settings: for GRAY MOLD: disease control rating, spray on grape berries, 400 ppm (+++ at 100 ppm)
[3] = system: Septoria tritici (leaf blotch); test: Test 1 greenhouse foliar spray screen, leaf blotch on wheat; settings: for LEAF BLOT: disease control rating, foliar spray on wheat, 400 ppm (+++ at 100 ppm)
[4] = system: Cercospora beticola (leaf spot); test: Test 1 greenhouse foliar spray screen, leaf spot on sugar beet; settings: for LEAF SPOT: disease control rating, foliar spray on sugar beet, 400 ppm (+++ at 100 ppm)
[5] = system: Pseudoperonospora cubensis (downy mildew); test: Test 1 greenhouse foliar spray screen, downy mildew on squash; settings: for DOWN MDEW: disease control rating, foliar spray on squash, 400 ppm (+++ at 100 ppm); for activity against downy mildew: summary statement in the description
plant pathogens = test: Fungicidal efficacy against a broad spectrum of plant pathogens (summary of screen); settings: summary statement in the description
[6] = system: Puccinia recondita tritici (leaf rust); test: Test 1 greenhouse foliar spray screen, leaf rust on wheat; settings: for LEAF RUST: disease control rating, foliar spray on wheat, 400 ppm (+++ at 100 ppm)
[7] = system: Pyricularia oryzae (rice blast); test: whole plant or invertebrate; settings: for RICE BLAST: disease control rating, foliar spray on rice, 400 ppm (+++ at 100 ppm)
[8] = system: Venturia inaequalis (apple scab); test: Test 1 greenhouse foliar spray screen, apple scab on apple seedling; settings: for APPL SCAB: disease control rating, foliar spray on apple seedling, 400 ppm (+++ at 100 ppm)
[9] = system: Twospotted spider mites (Tetranychus urticae Koch); test: Mite/insect screen, SM
Method in brief: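 Compounds dissolved in 50:50 acetone/alcohol containing sulfonate/nonionic emulsifier blends, then diluted with water to the indicated concentrations. Leaves sprayed on both surfaces to runoff at 10 psi and dried one hour. Percent mortality scored after standard exposure periods.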

[10] = system: Erysiphe graminis tritici (powdery mildew); test: Test 1 greenhouse foliar spray screen, powdery mildew on wheat; settings: for POWD MDEW: disease control rating, foliar spray on wheat, 400 ppm (+++ at 100 ppm)
[11] = system: southern armyworm (Spodopetra eridania Cramer); test: Mite/insect screen, SAW; settings: Spodoptera eridania, percent mortality, SAW, read-out: SAW RESULTS %
Method in brief: as §1

Plasmopara viticola = test: Field tests against plant pathogens; settings: field test, crop grape
Excerpt: Selected compounds were field tested against a variety of plant pathogens. […]

[12] = Aphis gossypii, SM & MA RATE 200 PPM, read-out: MA RESULTS %
[13] = CRW RATE 12.00 PPM, read-out: CRW RESULTS %
[14] = Tetranychus urticae, percent mortality, SAW, SM & MA RATE 200 PPM, read-out: SM RESULTS %
[15] = summary statement in the description

Q: Which mortality at 200 ppm [1, 12] does the source give for Fc1cccc2c(NCCc3ccc(Cl)cc3Cl)ccnc12 [Example 76, N-[2-(2,4-dichlorophenyl)ethyl]-8-fluoro-4-quinolinamine] here?
A: 0%

Q: And the “MA RESULTS %” value ([1]; SM & MA RATE 200 PPM)?
A: 0%

Q: And the “CRW RESULTS %” value (corn rootworm; CRW RATE 12.00 PPM)?
A: 0%

Q: And the mortality at 12 ppm (corn rootworm; [13])?
A: 0%

Q: What about the “GRAY MOLD” value [2] of the same molecule?
A: - (0-19% control at 400 ppm)

Q: And the “LEAF BLOT” value [3]?
A: +++ (90-100% control at 100 ppm)

Q: And the “LEAF SPOT” value [4]?
A: - (0-19% control at 400 ppm)

Q: What about the “DOWN MDEW” value [5] of the same molecule?
A: +++ (90-100% control at 100 ppm)

Q: And the “activity against a broad spectrum of plant pathogens” value (“activity against a broad spectrum” for short) (plant pathogens)?
A: particularly excellent activity

Q: And the “LEAF RUST” value [6]?
A: +++ (90-100% control at 100 ppm)

Q: And the “RICE BLAST” value [7]?
A: +++ (90-100% control at 100 ppm)

Q: And the “APPL SCAB” value [8]?
A: + (20-89% control at 400 ppm)

Q: What about the mortality at 200 ppm [9, 14] of the same molecule?
A: 0%

Q: And the “SM RESULTS %” value ([9]; percent mortality, SAW, SM & MA RATE 200 PPM)?
A: 0%

Q: What about the “POWD MDEW” value [10] of the same molecule?
A: ++ (90-100% control at 400 ppm)

Q: With Fc1cccc2c(NCCc3ccccc3C(F)(F)F)ccnc12 [Example 97, 8-fluoro-N-[2-[2-(trifluoromethyl)phenyl]ethyl]-4-quinolinamine] as the molecule, how does the mortality at 200 ppm [1, 12] read?
A: 0%

Q: What about the mortality at 12 ppm (corn rootworm; [13]) of the same molecule?
A: 0%

Q: And the mortality at 200 ppm ([11]; SM & MA RATE 200 PPM)?
A: 0%

Q: What about the “GRAY MOLD” value [2] of the same molecule?
A: - (0-19% control at 400 ppm)

Q: What about the “LEAF BLOT” value [3] of the same molecule?
A: +++ (90-100% control at 100 ppm)

Q: And the “LEAF SPOT” value [4]?
A: +++ (90-100% control at 100 ppm)

Q: And the “DOWN MDEW” value [5]?
A: +++ (90-100% control at 100 ppm)

Q: And the “activity against downy mildew” value [5]?
A: particularly excellent activity

Q: And the “LEAF RUST” value [6]?
A: +++ (90-100% control at 100 ppm)

Q: And the “pathogens against which compounds of the invention showed activity” value (Plasmopara viticola)?
A: Plasmopara viticola

Q: What about the “RICE BLAST” value [7] of the same molecule?
A: +++ (90-100% control at 100 ppm)

Q: What about the “APPL SCAB” value [8] of the same molecule?
A: - (0-19% control at 400 ppm)

Q: What about the mortality at 200 ppm [9, 14] of the same molecule?
A: 0%

Q: What about the “POWD MDEW” value [10] of the same molecule?
A: + (20-89% control at 400 ppm)

Q: With CC(C)c1ccc(CCNc2ccnc3c(F)cccc23)cc1 [Example 114, N-[2-[4-(i-propyl)phenyl]ethyl]-8-fluoro-4-quinolinamine] as the molecule, how does the mortality at 400 ppm ([1]; Aphis gossypii, SM & MA RATE 400 PPM, read-out: MA RESULTS %) read?
A: 30%

Q: And the mortality at 24 ppm (corn rootworm; CRW RATE 24.00 PPM, read-out: CRW RESULTS %)?
A: 0%

Q: What about the mortality at 400 ppm ([11]; SM & MA RATE 400 PPM) of the same molecule?
A: 70%

Q: And the “GRAY MOLD” value [2]?
A: - (0-19% control at 400 ppm)

Q: And the “LEAF BLOT” value [3]?
A: +++ (90-100% control at 100 ppm)

Q: And the “LEAF SPOT” value [4]?
A: +++ (90-100% control at 100 ppm)

Q: And the “DOWN MDEW” value [5]?
A: +++ (90-100% control at 100 ppm)

Q: What about the “activity against downy mildew” value [5] of the same molecule?
A: particularly excellent activity

Q: And the “activity against a broad spectrum” value (plant pathogens)?
A: particularly excellent activity

Q: What about the “LEAF RUST” value [6] of the same molecule?
A: +++ (90-100% control at 100 ppm)

Q: And the “RICE BLAST” value [7]?
A: +++ (90-100% control at 100 ppm)

Q: What about the “activity against rice blast” value [7, 15] of the same molecule?
A: particularly excellent activity

Q: And the “APPL SCAB” value [8]?
A: - (0-19% control at 400 ppm)

Q: What about the mortality at 400 ppm ([9]; Tetranychus urticae, percent mortality, SAW, SM & MA RATE 400 PPM, read-out: SM RESULTS %) of the same molecule?
A: 100%

Q: And the activity as miticides [9, 15]?
A: particularly excellent activity

Q: And the “POWD MDEW” value [10]?
A: +++ (90-100% control at 100 ppm)

Q: Which “CRW RESULTS %” value (corn rootworm; CRW rate 12.00 ppm) does the source give for Fc1cccc2c(OCCc3ccc(Cl)cc3)ccnc12 [Example 209, 4-[2-(4-chlorophenyl)-ethoxy]-8-fluoroquinoline] here?
A: 0%

Q: What about the mortality at 12 ppm (corn rootworm; CRW rate 12.00 ppm, read-out: CRW RESULTS %) of the same molecule?
A: 0%

Q: What about the pest or weed control at 400 ppm ([2]; Botrytis cinerea, foliar, Test 1, spray on grape berries, disease control rating at 400 ppm / 100 ppm) of the same molecule?
A: 0 to 19%

Q: And the pest or weed control at 400 ppm ([3]; Zymoseptoria tritici, Test 1, foliar spray on wheat, disease control rating at 400 ppm / 100 ppm, read-out: LEAF BLOT)?
A: 90 to 100%

Q: And the pest or weed control at 400 ppm ([4]; Cercospora beticola, Test 1, foliar spray on sugar beet, disease control rating at 400 ppm / 100 ppm)?
A: 90 to 100%

Q: What about the pest or weed control at 400 ppm ([5]; Pseudoperonospora cubensis, foliar, Test 1, foliar spray on squash, disease control rating at 400 ppm / 100 ppm, read-out: DOWN MDEW) of the same molecule?
A: 90 to 100%

Q: What about the “activity against a broad spectrum” value (plant pathogens) of the same molecule?
A: particularly excellent activity

Q: What about the pest or weed control at 400 ppm ([6]; Puccinia recondita, foliar, Test 1, foliar spray on wheat, disease control rating at 400 ppm / 100 ppm) of the same molecule?
A: 90 to 100%

Q: And the pest or weed control at 400 ppm ([7]; Pyricularia oryzae, foliar, read-out: RICE BLAST, Test 1, foliar spray on rice, disease control rating at 400 ppm / 100 ppm)?
A: 90 to 100%

Q: And the pest or weed control at 400 ppm ([8]; Venturia inaequalis, Test 1, foliar spray on apple seedling, disease control rating at 400 ppm / 100 ppm, read-out: APPL SCAB)?
A: 20 to 89%

Q: What about the mortality at 200 ppm ([9]; Tetranychus urticae, foliar, percent mortality, rate 200 ppm, foliar spray on squash, read-out: SM RESULTS %) of the same molecule?
A: 0%

Q: And the “SM RESULTS %” value ([9]; percent mortality, rate 200 ppm, foliar spray on squash)?
A: 0%

Q: What about the pest or weed control at 400 ppm ([10]; Blumeria graminis, foliar, Test 1, foliar spray on wheat, disease control rating at 400 ppm / 100 ppm, read-out: POWD MDEW) of the same molecule?
A: 90 to 100%
